For 15 compounds, IC50 results are on record in US11001587B2, “Substituted indazoles as phosphatidylinositol kinase inhibitors” (CUROVIR AB, priority 2017, dated 2021).

What all share (type): cell-based
The test system of one assay is Enterovirus 6. In words: In vitro CPE assay in mammalian cell culture, EV6. The settings on record: viral cytopathic effect in mammalian cell culture, read-out: EV6 inhibition capacity (IC50).
The test system of a further assay is Enterovirus 30. The experiment in a line: In vitro CPE assay in mammalian cell culture, EV30. Conditions: viral cytopathic effect in mammalian cell culture, read-out: EV30 inhibition capacity (IC50). On the technique in general: Cytopathic effects are the visible damage that an infection or toxin causes in cultured cells.
The test system of another assay is Enterovirus 68. In words: In vitro CPE assay in mammalian cell culture, EV68. Conditions: Enterovirus D, viral cytopathic effect in mammalian cell culture, read-out: EV68 inhibition capacity (IC50).
A further assay relates to Enterovirus 71. The experiment in a line: In vitro CPE assay in mammalian cell culture, EV71. Conditions: Enterovirus A, viral cytopathic effect in mammalian cell culture, read-out: EV71 inhibition capacity (IC50).
A further assay has as its system coxsackie B1 virus. In words: In vitro CPE assay in mammalian cell culture, B1. The settings on record: viral cytopathic effect in mammalian cell culture, read-out: B1 inhibition capacity (IC50).
The next assay has as its system coxsackie B2 virus. The experiment in a line: In vitro CPE assay in mammalian cell culture, B2. Conditions: viral cytopathic effect in mammalian cell culture, read-out: B2 inhibition capacity (IC50).
The subject of another assay is coxsackie B3 virus. In words: In vitro CPE assay in mammalian cell culture, B3. The settings on record: Enterovirus B, viral cytopathic effect in mammalian cell culture, read-out: B3 inhibition capacity (IC50).
The test system of a further assay is coxsackie B4 virus. In words: In vitro CPE assay in mammalian cell culture, B4. The settings on record: Enterovirus B, viral cytopathic effect in mammalian cell culture, read-out: B4 inhibition capacity (IC50).
Another assay deals with coxsackie B5 virus. In words: In vitro CPE assay in mammalian cell culture, B5. The settings on record: viral cytopathic effect in mammalian cell culture, read-out: B5 inhibition capacity (IC50).
The next assay has as its system polio virus Sabin 1. In words: organism not typed. The settings on record: read-out: Polio 1 inhibition capacity (IC50).

In the case of `Cc1nc(NCc2ccc(S(N)(=O)=O)cc2)n2nc(C)c(-c3ccc4c(c3)c(C)nn4C)c2n1` [Example 23, 4-(((8-(1,3-dimethyl-1H-indazol-5-yl)-2,7-dimethylpyrazolo[1,5-a][1,3,5]triazin-4-yl)amino)methyl)benzene-sulfonamide], the IC50 (commonly the concentration that gives 50% inhibition) in the assay with Enterovirus 6 is under 0.1 µM; in the assay on Enterovirus 30 it was under 0.1 µM; in the assay on Enterovirus 68, under 0.1 µM; in the assay on Enterovirus 71, under 0.01 µM; with coxsackie B1 virus, under 0.1 µM; with coxsackie B2 virus, under 0.1 µM. For the same compound, the IC50 in the assay with coxsackie B3 virus was under 0.1 µM; with coxsackie B4 virus it was under 0.01 µM; in the assay with coxsackie B5 virus, under 0.1 µM; in the assay with polio virus Sabin 1, under 0.1 µM.
With `Cc1nc(NCc2ccc(S(C)(=O)=O)cc2)n2nc(C)c(-c3ccc4c(c3)c(C)nn4C)c2n1` [Example 25, 8-(1,3-dimethyl-1H-indazol-5-yl)-2,7-dimethyl-N-(4-(methyl-sulfonyl)benzyl)pyrazolo[1,5-a][1,3,5]triazin-4-amine], the IC50 in the assay on Enterovirus 6, in the assay on Enterovirus 30, in the assay on Enterovirus 68, with Enterovirus 71, with coxsackie B1 virus and with coxsackie B2 virus was under 0.01 µM throughout. Moreover, the 50% inhibitory concentration (IC50) is under 0.01 µM in the assay with coxsackie B3 virus, under 0.001 µM in the assay with coxsackie B4 virus, under 0.01 µM with coxsackie B5 virus and under 0.001 µM with polio virus Sabin 1.
`Cc1nc(NCc2ccc(Cl)cc2)n2nc(C)c(-c3ccc4c(c3)c(C)nn4C)c2n1` [Example 24, N-(4-chlorobenzyl)-8-(1,3-dimethyl-1H-indazol-5-yl)-2,7-dimethylpyrazolo[1,5-a][1,3,5]triazin-4-amine]: the IC50 in the assay on Enterovirus 6 is under 1 µM; with Enterovirus 30, under 0.1 µM; in the assay on Enterovirus 68, under 1 µM; in the assay on Enterovirus 71, under 0.1 µM; with coxsackie B1 virus, under 0.1 µM; in the assay with coxsackie B2 virus it was under 0.1 µM. The IC50 with coxsackie B3 virus was under 0.1 µM; in the assay with coxsackie B4 virus, under 0.1 µM; with coxsackie B5 virus, under 1 µM; in the assay on polio virus Sabin 1, under 0.1 µM.
In the case of `Cc1nc(NCc2cccs2)n2nc(C)c(-c3ccc4c(c3)c(C)nn4C)c2n1` [Example 27, 8-(1,3-dimethyl-1H-indazol-5-yl)-2,7-dimethyl-N-(thiophen-2-ylmethyl)pyrazolo[1,5-a][1,3,5]triazin-4-amine], the IC50 in the assay on Enterovirus 6 was under 0.1 µM; in the assay on Enterovirus 30, under 0.1 µM; in the assay with Enterovirus 68, under 0.1 µM; in the assay on Enterovirus 71, under 0.1 µM; in the assay with coxsackie B1 virus it was under 0.001 µM; with coxsackie B2 virus, under 0.001 µM. The IC50 with coxsackie B3 virus was under 0.01 µM; in the assay on coxsackie B4 virus, under 0.001 µM; in the assay on polio virus Sabin 1, under 0.1 µM.
`COc1ccc(CNc2nc(C)nc3c(-c4ccc5c(c4)c(C)nn5C)c(C)nn23)cc1` [Example 21, 8-(1,3-dimethyl-1H-indazol-5-yl)-N-(4-methoxybenzyl)-2,7-dimethylpyrazolo[1,5-a][1,3,5]triazin-4-amine]: the IC50 is under 1 µM in the assay on Enterovirus 30; under 1 µM in the assay with Enterovirus 68; under 0.1 µM with Enterovirus 71; under 1 µM in the assay with coxsackie B1 virus; under 1 µM with coxsackie B2 virus; under 0.1 µM in the assay with coxsackie B3 virus. For the same compound, the IC50 with coxsackie B4 virus was under 1 µM; in the assay with coxsackie B5 virus, under 1 µM; in the assay on polio virus Sabin 1, under 0.01 µM.
`Cc1cc(NCc2ccc(Cl)cc2)c2nc(C)c(-c3ccc4c(c3)c(C)nn4C)n2n1` [Example 3, N-(4-chlorobenzyl)-3-(1,3-dimethyl-1H-indazol-5-yl)-2,6-dimethylimidazo[1,2-b]pyridazin-8-amine]: the IC50 with Enterovirus 6 is under 1 µM; in the assay on Enterovirus 30 it was under 1 µM; with Enterovirus 68, under 1 µM; in the assay on Enterovirus 71 it was under 1 µM; in the assay on coxsackie B1 virus, under 0.1 µM; with coxsackie B2 virus it was under 1 µM. Moreover, the IC50 with coxsackie B3 virus, with coxsackie B4 virus and with polio virus Sabin 1 was under 1 µM in each case.
For the compound `Cc1nc(NCc2ccc(NS(C)(=O)=O)cc2)n2nc(C)c(-c3ccc4c(c3)c(C)nn4C)c2n1` [Example 26, N-(4-(((8-(1,3-dimethyl-1H-indazol-5-yl)-2,7-dimethylpyrazolo[1,5-a][1,3,5]triazin-4-yl)amino)meth-yl)phenyl)methane-sulfonamide], the IC50 with Enterovirus 6 is under 1 µM; in the assay on Enterovirus 30 it was under 0.1 µM; in the assay with Enterovirus 68, under 0.1 µM; in the assay on Enterovirus 71, under 0.1 µM; with coxsackie B1 virus, under 0.01 µM; in the assay with coxsackie B2 virus, under 0.1 µM. Moreover, the figures for the IC50 with coxsackie B3 virus, with coxsackie B4 virus and with polio virus Sabin 1 were under 0.1 µM, under 0.1 µM and under 1 µM, respectively.
Take `Cc1cc(NCc2cccs2)c2nc(C)c(-c3ccc4c(c3)c(C)nn4C)n2n1` [Example 5, 3-(1,3-dimethyl-1H-indazol-5-yl)-2,6-dimethyl-N-(thiophen-2-ylmethyl)imidazo[1,2-b]pyridazin-8-amine]: the IC50 with Enterovirus 6 was under 0.1 µM; in the assay on Enterovirus 30 it was under 0.1 µM; in the assay on Enterovirus 68, under 1 µM; with Enterovirus 71 it was under 0.1 µM; in the assay with coxsackie B1 virus, under 0.001 µM; with coxsackie B2 virus it was under 0.1 µM. The half-maximal inhibitory concentration (IC50) with coxsackie B3 virus, with coxsackie B4 virus and in the assay on polio virus Sabin 1 was under 0.1 µM throughout.
For the compound `COc1ccc(CNc2cc(C)nn3c(-c4ccc5c(c4)c(C)nn5C)c(C)nc23)cn1` [Example 4, 3-(1,3-dimethyl-1H-indazol-5-yl)-N-((6-methoxypyridin-3-yl)methyl)-2,6-dimethylimidazo[1,2-b]pyridazin-8-amine], the IC50 with Enterovirus 6 was under 1 µM; in the assay with Enterovirus 30 it was under 0.1 µM; with Enterovirus 68, under 1 µM; in the assay with Enterovirus 71, under 0.1 µM; with coxsackie B1 virus, under 0.1 µM; in the assay with coxsackie B2 virus it was under 0.1 µM. Moreover, the IC50 was under 0.1 µM in the assay with coxsackie B3 virus, under 0.1 µM in the assay with coxsackie B4 virus and under 1 µM in the assay on polio virus Sabin 1.
On to `COc1ccc(CNc2cc(C)nc3c(-c4ccc5c(c4)c(C)nn5C)c(C)nn23)cc1` [Example 10, 3-(1,3-dimethyl-1H-indazol-5-yl)-N-(4-methoxybenzyl)-2,5-dimethylpyrazolo[1,5-a]pyrimidin-7-amine], for which the IC50 in the assay with Enterovirus 6 is under 1 µM; in the assay with Enterovirus 30, under 0.1 µM; in the assay on Enterovirus 68 it was under 1 µM; in the assay with Enterovirus 71, under 1 µM; in the assay on coxsackie B1 virus, under 1 µM; in the assay with coxsackie B2 virus, under 1 µM. Also, the IC50 in the assay on coxsackie B3 virus was under 0.1 µM; with coxsackie B4 virus it was under 0.1 µM; with coxsackie B5 virus, under 0.1 µM; in the assay on polio virus Sabin 1 it was under 1 µM.
Consider `Cc1cc(NCc2ccc(F)cc2)n2nc(C)c(-c3ccc4c(c3)c(C)nn4C)c2n1` [Example 19, N-(4-fluorobenzyl)-3-(1,3-dimethyl-1H-indazol-5-yl)-2,5-dimethylpyrazolo[1,5-a]pyrimidin-7-amine], for which the IC50 in the assay with Enterovirus 6 was under 1 µM; in the assay on Enterovirus 71, under 0.1 µM; in the assay with coxsackie B2 virus it was under 1 µM; with coxsackie B3 virus it was under 0.1 µM; in the assay on coxsackie B4 virus, under 1 µM; with coxsackie B5 virus, under 1 µM. Also, in the assay on polio virus Sabin 1, the IC50 is under 1 µM.
With `Cc1cc(NCc2ccc(C(F)(F)F)nc2)n2nc(C)c(-c3ccc4c(c3)c(C)nn4C)c2n1` [Example 17, 3-(1,3-dimethyl-1H-indazol-5-yl)-2,5-dimethyl-N-((6-trifluoromethylpyridin-3-yl)methyl)pyrazolo[1,5-a]pyrimidin-7-amine], the IC50 was under 1 µM in the assay with Enterovirus 6; under 1 µM in the assay with Enterovirus 30; under 0.1 µM in the assay with Enterovirus 71; under 1 µM with coxsackie B2 virus; under 1 µM in the assay on coxsackie B3 virus; under 1 µM with coxsackie B4 virus. The IC50 in the assay with coxsackie B5 virus and with polio virus Sabin 1 was under 1 µM each time.
With `COc1ccc(CNc2cc(C)nn3c(-c4ccc5c(c4)c(C)nn5C)c(C)nc23)cc1` [Example 6, 3-(1,3-dimethyl-1H-indazol-5-yl)-N-(4-methoxybenzyl)-2,6-dimethylimidazo[1,2-b]pyridazin-8-amine], the IC50 in the assay on Enterovirus 30, in the assay with Enterovirus 68, in the assay with coxsackie B1 virus, in the assay on coxsackie B2 virus, with coxsackie B3 virus and in the assay on coxsackie B4 virus was under 1 µM each time. Moreover, the IC50 with coxsackie B5 virus and in the assay with polio virus Sabin 1 was under 1 µM each time.
On to `COc1ccc(CNc2nc(C)nc3c(-c4ccc5c(c4)c(C)nn5C)c(C)nn23)cn1` [Example 28, 8-(1,3-dimethyl-1H-indazol-5-yl)-N-((6-methoxypyridin-3-yl)methyl)-2,7-dimethylpyrazolo[1,5-a][1,3,5]triazin-4-amine], for which the IC50 in the assay with Enterovirus 6 is under 1 µM; in the assay with Enterovirus 30, under 0.1 µM; with Enterovirus 68, under 1 µM; in the assay on Enterovirus 71, under 0.1 µM; in the assay on coxsackie B1 virus, under 0.01 µM; in the assay on coxsackie B2 virus it was under 0.1 µM. For the same compound, the IC50 was under 0.1 µM with coxsackie B3 virus, under 0.1 µM in the assay on coxsackie B4 virus and under 1 µM in the assay on polio virus Sabin 1.
With `Cc1cc(NCc2ccccc2)n2nc(C)c(-c3ccc4c(c3)c(C)nn4C)c2n1` [Example 18, N-(benzyl)-3-(1,3-dimethyl-1H-indazol-5-yl)-2,5-dimethylpyrazolo[1,5-a]pyrimidin-7-amine], the IC50 in the assay on Enterovirus 6 is under 1 µM; in the assay on Enterovirus 71 it was under 0.01 µM; in the assay with coxsackie B2 virus, under 0.1 µM; in the assay on coxsackie B3 virus it was under 0.1 µM; in the assay on coxsackie B4 virus it was under 1 µM; in the assay with coxsackie B5 virus, under 1 µM. In addition, in the assay on polio virus Sabin 1, the IC50 was under 0.1 µM.
